Data on ten molecules can be found in patent publication US20240287079A1, “6-AMINOPYRAZOLOPYRIMIDINE COMPOUND AND PHARMACEUTICAL USE THEREOF” (Japan Tobacco Inc., priority 2021, published 2024).

In general, IC50 refers to the concentration needed to halve the response being measured. High values mean lower potency, low ones higher potency. The inhibition is how much of the control response was suppressed. Read a high inhibition as strong suppression.

SMILES strings stand for the structures.

NLRP3 inflammasome, sequence (Q96P20 whole entry): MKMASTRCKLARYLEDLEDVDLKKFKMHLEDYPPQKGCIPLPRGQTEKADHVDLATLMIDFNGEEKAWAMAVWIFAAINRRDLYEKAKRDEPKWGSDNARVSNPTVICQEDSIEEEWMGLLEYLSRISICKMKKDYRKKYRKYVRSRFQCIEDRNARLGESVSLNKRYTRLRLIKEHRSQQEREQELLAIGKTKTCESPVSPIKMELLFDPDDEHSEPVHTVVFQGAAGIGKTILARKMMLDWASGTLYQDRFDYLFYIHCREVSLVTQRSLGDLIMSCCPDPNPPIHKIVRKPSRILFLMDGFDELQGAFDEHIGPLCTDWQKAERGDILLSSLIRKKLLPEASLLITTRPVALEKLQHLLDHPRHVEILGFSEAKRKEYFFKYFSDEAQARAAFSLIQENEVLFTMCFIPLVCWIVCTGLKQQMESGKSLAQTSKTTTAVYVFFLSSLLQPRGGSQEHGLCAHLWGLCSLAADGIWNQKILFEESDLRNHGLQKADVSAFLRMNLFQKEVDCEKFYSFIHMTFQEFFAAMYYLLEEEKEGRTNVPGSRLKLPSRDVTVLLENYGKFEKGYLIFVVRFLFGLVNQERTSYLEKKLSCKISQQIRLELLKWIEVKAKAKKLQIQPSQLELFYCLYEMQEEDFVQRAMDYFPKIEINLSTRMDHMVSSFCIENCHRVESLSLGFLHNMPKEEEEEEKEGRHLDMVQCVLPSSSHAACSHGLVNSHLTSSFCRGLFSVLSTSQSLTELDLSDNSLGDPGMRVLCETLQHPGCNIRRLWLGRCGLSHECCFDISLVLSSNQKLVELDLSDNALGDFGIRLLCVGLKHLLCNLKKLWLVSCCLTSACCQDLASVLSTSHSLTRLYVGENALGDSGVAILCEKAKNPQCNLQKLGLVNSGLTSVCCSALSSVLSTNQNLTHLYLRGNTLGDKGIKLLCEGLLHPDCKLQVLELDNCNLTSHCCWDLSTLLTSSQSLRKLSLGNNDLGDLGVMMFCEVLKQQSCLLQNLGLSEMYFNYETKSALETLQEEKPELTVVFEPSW

The first assay concerns the target NLRP3 inflammasome (Homo sapiens (Human), UniProt Q96P20). Description: Evaluation of NLRP3 inflammasome inhibitory activity (inhibition of IL-1β production in LPS/Nigericin-stimulated THP1-Null cells). The note with it: IL-1β production in THP1-Null cells, PMA, LPS 1 μg/mL, Nigericin 7.5 μmol/L, AlphaLISA. The assay is classed as cell-based. The procedure, abridged:
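THP1-Null cells primed with 1 μg/mL LPS, then treated with test compound; supernatant IL-1β quantified by AlphaLISA. Inhibition calculated with blank wells as 100% and control wells as 0%.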
(In general: Alpha assays give light when donor and acceptor beads are brought close together.)
`CC(=O)c1cc(Br)ccc1-n1cc2c(=O)[nH]c(N3CCOCC3)nc2n1` [Example 131] had an IC50 of 0.063 µM. Molecule `Cc1cc(C2CC2)cc(C)c1-n1cc2c(=O)[nH]c(N3CCOC[C@H]3C)nc2n1` [Example 275] yielded an IC50 of 0.0085 µM.

Molecule `Cc1nn(C(C)C)c(C)c1-n1cc2c(=O)[nH]c(N3CCCC3)nc2n1` [Example 343, 2-(1-isopropyl-3,5-dimethyl-1H-pyrazol-4-yl)-6-(pyrrolidin-1-yl)-2,5-dihydro-4H-pyrazolo[3,4-d]pyrimidin-4-one] yielded an IC50 of 0.75 µM. Against the preceding molecule, the IC50 is about 88-fold higher. In the case of `O=c1[nH]c(N2CCOCC2)nc2nn(-c3ccc(OC(F)F)cc3C(F)(F)F)cc12` [Example 325], half-maximal inhibition (IC50) was put at 0.031 µM.

`O=c1[nH]c(N2C[C@H]3C[C@@H]2CO3)nc2nn(-c3ccc(Br)cc3C(F)(F)F)cc12` [Example 259] gave a concentration for half-maximal inhibition (IC50) of 0.023 µM.

Molecule `Cc1cc(Br)ccc1-n1cc2c(=O)[nH]c(N3CC4CC(C3)O4)nc2n1` [Example 169] yielded an IC50 of 0.017 µM. The molecule `CC(=O)N(C)c1nc2nn(-c3ccc(C)cc3C)cc2c(=O)[nH]1` [Example 66] yielded an IC50 of 4.3 µM. This IC50 lies about 250-fold higher than the previous one. With `COc1nc(N2CCCC2)nc2nn(-c3ccccc3C)cc12` [Example 13], half-maximal inhibition (IC50) was put at 7.7 µM.

Staying with this assay, now noted: IL-1β production in THP1-Null cells; test compound 0.0024 μM.
Regarding `Cc1cc(Br)cc(C)c1-n1cc2c(=O)[nH]c(NCCO)nc2n1` [Example 359], the inhibition at 0.0024 µM worked out at 69%. For the molecule `CCNc1nc2nn(-c3c(C)cc(Br)cc3C)cc2c(=O)[nH]1` [Example 227], at 0.0024 µM the inhibition was 52%.
